From ChEMBL document CHEMBL5576124, “Discovery of an Exceptionally Orally Bioavailable and Potent HPK1 PROTAC with Enhancement of Antitumor Efficacy of Anti-PD-L1 Therapy” (J Med Chem, 2024)
The source made the active and inactive calls. No cut-off for these calls is given here.

Columns and labels:
[1] = target: T1, Protein cereblon/Mitogen-activated protein kinase kinase kinase kinase 1 (Homo sapiens, UniProt Q92918+Q96SW2); test: PROTAC activity at CRBN/HPK1 in human Jurkat cells assessed as maximal degradation of HPK1 protein incubated for 24 hrs by Western blotting analysis relative to control; assay type: cell-based
Target sequence in this assay (Q92918 whole entry, looked up): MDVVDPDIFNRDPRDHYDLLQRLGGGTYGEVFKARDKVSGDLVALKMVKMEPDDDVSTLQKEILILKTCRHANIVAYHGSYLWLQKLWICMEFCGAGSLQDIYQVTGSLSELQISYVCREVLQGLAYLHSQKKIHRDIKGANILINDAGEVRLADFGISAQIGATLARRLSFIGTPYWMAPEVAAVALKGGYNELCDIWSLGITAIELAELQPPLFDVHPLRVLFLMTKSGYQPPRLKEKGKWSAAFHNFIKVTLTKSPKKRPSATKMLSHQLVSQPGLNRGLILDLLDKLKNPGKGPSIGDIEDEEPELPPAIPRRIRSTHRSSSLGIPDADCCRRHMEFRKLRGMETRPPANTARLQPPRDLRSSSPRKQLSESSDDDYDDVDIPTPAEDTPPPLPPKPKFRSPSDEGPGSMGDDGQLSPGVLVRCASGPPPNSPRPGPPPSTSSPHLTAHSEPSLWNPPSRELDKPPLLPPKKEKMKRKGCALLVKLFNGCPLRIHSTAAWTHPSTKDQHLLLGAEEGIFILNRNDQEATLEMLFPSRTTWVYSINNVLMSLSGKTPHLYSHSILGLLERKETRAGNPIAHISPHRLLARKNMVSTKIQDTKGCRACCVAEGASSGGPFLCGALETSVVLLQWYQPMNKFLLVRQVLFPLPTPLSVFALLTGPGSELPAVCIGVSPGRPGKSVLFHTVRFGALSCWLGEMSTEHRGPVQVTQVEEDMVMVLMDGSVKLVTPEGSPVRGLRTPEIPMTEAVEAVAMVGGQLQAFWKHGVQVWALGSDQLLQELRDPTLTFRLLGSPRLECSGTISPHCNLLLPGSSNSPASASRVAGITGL
Target sequence in this assay (Q96SW2 whole entry, looked up): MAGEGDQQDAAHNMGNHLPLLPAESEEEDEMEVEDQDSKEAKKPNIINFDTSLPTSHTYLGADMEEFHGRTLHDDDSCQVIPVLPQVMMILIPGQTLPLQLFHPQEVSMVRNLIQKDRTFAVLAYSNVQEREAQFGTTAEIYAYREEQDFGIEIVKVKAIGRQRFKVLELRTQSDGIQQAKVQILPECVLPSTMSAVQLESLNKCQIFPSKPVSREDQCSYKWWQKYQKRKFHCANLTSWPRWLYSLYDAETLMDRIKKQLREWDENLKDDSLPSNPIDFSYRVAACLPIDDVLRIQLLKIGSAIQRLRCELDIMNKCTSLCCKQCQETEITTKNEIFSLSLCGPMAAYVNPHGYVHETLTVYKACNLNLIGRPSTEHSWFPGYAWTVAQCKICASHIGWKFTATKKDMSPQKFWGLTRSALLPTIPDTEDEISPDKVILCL

[2] = target: T1, Protein cereblon/Mitogen-activated protein kinase kinase kinase kinase 1; test: PROTAC activity at CRBN/HPK1 in human Jurkat cells assessed as degradation of HPK1 protein incubated for 24 hrs by Western blotting analysis; assay type: cell-based
Target sequence in this assay (Q92918 whole entry): as the sequence (Q92918 whole entry, looked up) above
Target sequence in this assay (Q96SW2 whole entry): as the sequence (Q96SW2 whole entry, looked up) above

[3] = Cmax in Sprague-Dawley rat at 10 mg/kg,po measured upto 24 hrs by LC-MS analysis; assay type: ADME, organism-based; conditions: in vivo
[4] = Tmax in Sprague-Dawley rat at 10 mg/kg,po measured upto 24 hrs by LC-MS analysis; assay type: ADME, organism-based; conditions: in vivo
[5] = Half life in Sprague-Dawley rat at 10 mg/kg,po measured upto 24 hrs by LC-MS analysis; assay type: ADME, organism-based; conditions: in vivo
[6] = MRT in Sprague-Dawley rat at 10 mg/kg,po measured upto 24 hrs by LC-MS analysis; assay type: ADME, organism-based; conditions: in vivo
[7] = AUC (0 to t) in Sprague-Dawley rat at 10 mg/kg,po measured upto 24 hrs by LC-MS analysis; assay type: ADME, organism-based; conditions: in vivo
[8] = target: T1, Protein cereblon/Mitogen-activated protein kinase kinase kinase kinase 1; test: PROTAC activity at CRBN/HPK1 in human Jurkat cells assessed as maximal degradation of HPK1 protein incubated for 24 hrs by Nano-Glo luminescence assay relative to control; assay type: cell-based
Target sequence in this assay (Q92918 whole entry, looked up): as the sequence (Q92918 whole entry, looked up) above
Target sequence in this assay (Q96SW2 whole entry, looked up): as the sequence (Q96SW2 whole entry, looked up) above

Jurkat [9] = test: Antiproliferative activity against human Jurkat cells assessed as inhibition of cell growth at 10 uM incubated for 3 days by CCK-8 assay; assay type: functional, cell-based; conditions: time 3.0 day
[10] = target: Mitogen-activated protein kinase kinase kinase kinase 1 (Homo sapiens, UniProt Q92918); test: Inhibition of HPK1 (unknown origin)
Mitogen-activated protein kinase kinase kinase kinase 1, sequence (Q92918 whole entry): as the sequence (Q92918 whole entry, looked up) above

T-cell line = test: Immunostimulatory activity in human T cell assessed as increase in IL-2 secretion at 10 uM relative to control; assay type: functional
Jurkat [11] = test: Antiproliferative activity against human Jurkat cells assessed as inhibition of cell growth at 2 uM incubated for 3 days by CCK-8 assay; assay type: functional, cell-based; conditions: time 3.0 day
CT26 = test: Antitumor activity against mouse CT26 cells implanted BALB/c mouse model assessed as tumor growth inhibition at 25 mg/kg,po administrated once daily for 15 days relative to control; assay type: functional; conditions: CT26, 360 h, time 15 day, read-out: TGI

SMILES	Emax [1]	DC50 [2]	also measured
Cc1cc(-c2c[nH]c3ncc(-c4ccc(C5CCN(CC6CCN(c7ccc8c(c7)C(=O)N(C7CCC(=O)NC7=O)C8=O)CC6)CC5)cc4)nc23)ccc1C(=O)N(C)C (stereo not drawn)	84.1%	420 nM	–
Cc1cc(-c2c[nH]c3ncc(-c4ccc(C5CCN(C6CN(c7cc8c(cc7F)C(=O)N(C7CCC(=O)NC7=O)C8=O)C6)CC5)cc4)nc23)ccc1C(=O)N(C)C (stereo not drawn)	84.2%	78.8 nM	–
Cc1cc(-c2c[nH]c3ncc(-c4ccc(C5CCN(C6CN(C(=O)C7CCN(c8ccc(C(=O)NC9CCC(=O)NC9=O)cc8)CC7)C6)CC5)cc4)nc23)ccc1C(=O)N(C)C (stereo not drawn)	24.2%	> 10000 nM	–
Cc1cc(-c2c[nH]c3ncc(-c4ccc(C5CCN(C(=O)CNc6cccc7c6C(=O)N(C6CCC(=O)NC6=O)C7=O)CC5)cc4)nc23)ccc1C(=O)N(C)C (stereo not drawn)	0.1%	> 10000 nM	–
Cc1cc(-c2c[nH]c3ncc(-c4ccc(C5CCN(C(=O)CCOCCOCCOc6cccc7c6C(=O)N(C6CCC(=O)NC6=O)C7=O)CC5)cc4)nc23)ccc1C(=O)N(C)C (stereo not drawn)	56.6%	245 nM	Cmax [3]: 118 ng/mL; Tmax [4]: 0.5 h; half-life [5]: 2.3 h; MRT [6]: 3.6 h; AUC(0-t) at 24 h [7]: 187 ng·h/mL
Cc1cc(-c2c[nH]c3ncc(-c4ccc(C5CCN(CCC6CCN(c7ccc8c(c7)C(=O)N(C7CCC(=O)NC7=O)C8=O)CC6)CC5)cc4)nc23)ccc1C(=O)N(C)C (stereo not drawn)	58.5%	1060 nM	–
Cc1cc(-c2c[nH]c3ncc(-c4ccc(N5CCN(CC6CN(c7ccc8c(c7)C(=O)N(C7CCC(=O)NC7=O)C8=O)C6)CC5)cc4)nc23)ccc1C(=O)N(C)C (stereo not drawn)	94.6%	134 nM	Cmax [3]: 1500 ng/mL; Tmax [4]: 3 h; half-life [5]: 4.86 h; MRT [6]: 6.84 h; AUC(0-t) at 24 h [7]: 16000 ng·h/mL
Cc1cc(-c2c[nH]c3ncc(-c4ccc(N5CCN(CC6CCN(c7ccc8c(c7)C(=O)N(C7CCC(=O)NC7=O)C8=O)CC6)CC5)cc4)nc23)ccc1C(=O)N(C)C (stereo not drawn)	59.9%	33.9 nM	Cmax [3]: 636 ng/mL; Tmax [4]: 4 h; half-life [5]: 16.7 h; MRT [6]: 24.6 h; AUC(0-t) at 24 h [7]: 9970 ng·h/mL
Cc1cc(-c2c[nH]c3ncc(-c4ccc(N5CCN(C6CCN(c7ccc8c(c7)C(=O)N(C7CCC(=O)NC7=O)C8=O)CC6)CC5)cc4)nc23)ccc1C(=O)N(C)C (stereo not drawn)	56.1%	99.2 nM	–
Cc1cc(-c2c[nH]c3ncc(-c4ccc(C5CCN(C6CN(C(=O)C7CCN(c8ccc9c(c8)C(=O)N(C8CCC(=O)NC8=O)C9=O)CC7)C6)CC5)cc4)nc23)ccc1C(=O)N(C)C (stereo not drawn)	30.1%	> 10000 nM	–
Cc1cc(-c2c[nH]c3ncc(-c4ccc(N5CCN(c6cccc7c6C(=O)N(C6CCC(=O)NC6=O)C7=O)CC5)cc4)nc23)ccc1C(=O)N(C)C (stereo not drawn)	37.9%	> 10000 nM	Cmax [3]: 602 ng/mL; Tmax [4]: 1 h; half-life [5]: 4.4 h; MRT [6]: 6.8 h; AUC(0-t) at 24 h [7]: 4470 ng·h/mL
Cc1cc(-c2c[nH]c3ncc(-c4ccc(N5CCN(CCC6CCN(c7ccc8c(c7)C(=O)N(C7CCC(=O)NC7=O)C8=O)CC6)CC5)cc4)nc23)ccc1C(=O)N(C)C (stereo not drawn)	48.2%	> 10000 nM	–
Cc1cc(-c2c[nH]c3ncc(-c4ccc(C5CCN(C6CN(c7cccc8c7C(=O)N(C7CCC(=O)NC7=O)C8=O)C6)CC5)cc4)nc23)ccc1C(=O)N(C)C (stereo not drawn)	64.9%	152 nM	–
Cc1cc(-c2c[nH]c3ncc(-c4ccc(C5CCN(CC6CCN(C7CN(c8ccc9c(c8)C(=O)N(C8CCC(=O)NC8=O)C9=O)C7)CC6)CC5)cc4)nc23)ccc1C(=O)N(C)C (stereo not drawn)	38%	> 10000 nM	–
Cc1cc(-c2c[nH]c3ncc(-c4ccc(C5CCN(C(=O)CCOc6cccc7c6C(=O)N(C6CCC(=O)NC6=O)C7=O)CC5)cc4)nc23)ccc1C(=O)N(C)C (stereo not drawn)	6.7%	> 10000 nM	–
Cc1cc(F)c(Nc2nc(-c3ccc4c(c3)N(C3CC(N5CCCCC5)C3)C(=O)C43CCN(CCOCCOCCOCCOCCOCCOCCOCCNc4cccc5c4C(=O)N(C4CCC(=O)NC4=O)C5=O)CC3)cc3ncn(C(C)C)c23)cc1C(=O)NC(C)C (stereo not drawn)	–	–	Emax [8]: > 65%
Cc1cc(-c2c[nH]c3ncc(-c4ccc(C5CCN(C(=O)CCNc6cccc7c6C(=O)N(C6CCC(=O)NC6=O)C7=O)CC5)cc4)nc23)ccc1C(=O)N(C)C (stereo not drawn)	63.6%	962 nM	–

SMILES	Emax [1]	DC50 [2]	also measured
Cc1cc(-c2c[nH]c3ncc(-c4ccc(C5CCN(C6CN(C(=O)C7CN(c8ccc9c(c8)C(=O)N(C8CCC(=O)NC8=O)C9=O)C7)C6)CC5)cc4)nc23)ccc1C(=O)N(C)C (stereo not drawn)	39.4%	> 10000 nM	–
Cc1cc(-c2c[nH]c3ncc(-c4ccc(C5CCN(C6CN(CC7CCN(c8ccc(N9CCC(=O)NC9=O)c(C)c8)CC7)C6)CC5)cc4)nc23)ccc1C(=O)N(C)C	79.3%	127 nM	–
Cc1cc(-c2c[nH]c3ncc(-c4ccc(C5CCN(c6ccc7c(c6)C(=O)N(C6CCC(=O)NC6=O)C7=O)CC5)cc4)nc23)ccc1C(=O)N(C)C (stereo not drawn)	3.4%	> 10000 nM	–
Cc1cc(-c2c[nH]c3ncc(-c4ccc(C5CCN(C6CN(C7CN(c8ccc9c(c8)C(=O)N(C8CCC(=O)NC8=O)C9=O)C7)C6)CC5)cc4)nc23)ccc1C(=O)N(C)C (stereo not drawn)	58.1%	295 nM	–
Cc1cc(-c2c[nH]c3ncc(-c4ccc(C5CCN(CC6CCN(c7ccc8c(c7)C(=O)N(C7CCC(=O)NC7=O)C8=O)C6)CC5)cc4)nc23)ccc1C(=O)N(C)C (stereo not drawn)	84.1%	78.8 nM	–
Cc1cc(-c2c[nH]c3ncc(-c4ccc(C5CCN(C6CN(C(=O)Cc7ccc(NC8CCC(=O)NC8=O)cc7)C6)CC5)cc4)nc23)ccc1C(=O)N(C)C (stereo not drawn)	38.5%	> 10000 nM	–
Cc1cc(-c2c[nH]c3ncc(-c4ccc(C5CCN(C(=O)C6CN(c7ccc8c(c7)C(=O)N(C7CCC(=O)NC7=O)C8=O)C6)CC5)cc4)nc23)ccc1C(=O)N(C)C (stereo not drawn)	42.6%	> 10000 nM	–
Cc1cc(-c2c[nH]c3ncc(-c4ccc(N5CCN(c6ccc7c(c6)C(=O)N(C6CCC(=O)NC6=O)C7=O)CC5)cc4)nc23)ccc1C(=O)N(C)C (stereo not drawn)	22.3%	> 10000 nM	–
Cc1cc(-c2c[nH]c3ncc(-c4cc(C)c5c(c4)CN(C)CC5)nc23)ccc1C(=O)N(C)C	–	–	Activity (Jurkat [9]): Active; IC50 [10]: 5.82 nM; Activity (T-cell line): 34.15%; Activity (Jurkat [11]): Active; inhibition in vivo at 25 mg/kg (CT26): 16.5%
Cc1cc(-c2c[nH]c3ncc(-c4ccc(C5CCN(c6cccc7c6C(=O)N(C6CCC(=O)NC6=O)C7=O)CC5)cc4)nc23)ccc1C(=O)N(C)C (stereo not drawn)	2.8%	> 10000 nM	–
Cc1cc(-c2c[nH]c3ncc(-c4ccc(N5CCN(CC6CCN(c7ccc8c(c7)C(=O)N(C7CCC(=O)NC7=O)C8=O)C6)CC5)cc4)nc23)ccc1C(=O)N(C)C (stereo not drawn)	56.6%	246 nM	–
Cc1cc(-c2c[nH]c3ncc(-c4ccc(C5CCN(C(=O)C6CCN(c7ccc8c(c7)C(=O)N(C7CCC(=O)NC7=O)C8=O)CC6)CC5)cc4)nc23)ccc1C(=O)N(C)C (stereo not drawn)	63.6%	1750 nM	–
Cc1cc(-c2c[nH]c3ncc(-c4ccc(C5CCN(C6CN(C(=O)CNc7cccc8c7C(=O)N(C7CCC(=O)NC7=O)C8=O)C6)CC5)cc4)nc23)ccc1C(=O)N(C)C (stereo not drawn)	22.7%	> 10000 nM	–
Cc1cc(-c2c[nH]c3ncc(-c4ccc(C5CCN(C6CCN(c7ccc8c(c7)C(=O)N(C7CCC(=O)NC7=O)C8=O)C6)CC5)cc4)nc23)ccc1C(=O)N(C)C (stereo not drawn)	76.6%	94 nM	–
Cc1cc(-c2c[nH]c3ncc(-c4ccc(C5CCN(C6CN(C(=O)C7CCN(c8ccc(NC9CCC(=O)NC9=O)cc8)CC7)C6)CC5)cc4)nc23)ccc1C(=O)N(C)C (stereo not drawn)	41.4%	> 10000 nM	–
Cc1cc(-c2c[nH]c3ncc(-c4ccc(N5CCN(C6CN(c7ccc8c(c7)C(=O)N(C7CCC(=O)NC7=O)C8=O)C6)CC5)cc4)nc23)ccc1C(=O)N(C)C (stereo not drawn)	68.3%	28.2 nM	–
